Laboratory results as given in PMC3519477, “Structures of the Human Poly (ADP-Ribose) Glycohydrolase Catalytic Domain Confirm Catalytic Mechanism and Explain Inhibition by ADP-HPD Derivatives” (PLoS ONE, 2012).
Values joined by “and” are separate entries in the source; they are usually repeats but may differ in a detail not shown here. Equal values may be shown once. Read-outs that look alike come from different tables or passages of the source.

What was measured:
[1] = target: wild-type bPARG; design: method as in PMID 15658938; details: SPR with immobilized 8-AH-ADP-HPD; cited from earlier work
[2] = target: bPARG Glu728Asn mutant; details: cited from earlier work
[3] = test system: bPARG Glu708Asn mutant; details: ref supplemental 2 (Patel et al., 2005); cited from earlier work
[4] = test system: bPARG Asp738Asn mutant; details: ref supplemental 2 (Patel et al., 2005); cited from earlier work
[5] = test system: bPARG Glu756Asn mutant; design: method as in supplemental 2 (Patel et al., 2005); details: ref supplemental 2 (Patel et al., 2005); cited from earlier work
[6] = test system: bPARG Glu757Asn mutant; design: method as in supplemental 2 (Patel et al., 2005); details: ref supplemental 2 (Patel et al., 2005); cited from earlier work
[7] = test system: bPARG Tyr796Trp mutant; design: method as in supplemental 6 (Koh et al., 2003); details: ref supplemental 6 (Koh et al., 2003); cited from earlier work
[8] = target: T1, hPARG (full-length recombinant hPARG(1–976)-6His) (Homo sapiens, UniProt Q86W56); assay: PARG activity HTRF assay (PAR-PARP1 hydrolysis); type: biochemical; details: hPARG
T1 construct: direct expression of hPARG(1–976) with a C-terminal hexahistidine tag; made in house; host or cells: E. coli BL21 (DE3) GOLD
T1 sequence (Q86W56 whole entry): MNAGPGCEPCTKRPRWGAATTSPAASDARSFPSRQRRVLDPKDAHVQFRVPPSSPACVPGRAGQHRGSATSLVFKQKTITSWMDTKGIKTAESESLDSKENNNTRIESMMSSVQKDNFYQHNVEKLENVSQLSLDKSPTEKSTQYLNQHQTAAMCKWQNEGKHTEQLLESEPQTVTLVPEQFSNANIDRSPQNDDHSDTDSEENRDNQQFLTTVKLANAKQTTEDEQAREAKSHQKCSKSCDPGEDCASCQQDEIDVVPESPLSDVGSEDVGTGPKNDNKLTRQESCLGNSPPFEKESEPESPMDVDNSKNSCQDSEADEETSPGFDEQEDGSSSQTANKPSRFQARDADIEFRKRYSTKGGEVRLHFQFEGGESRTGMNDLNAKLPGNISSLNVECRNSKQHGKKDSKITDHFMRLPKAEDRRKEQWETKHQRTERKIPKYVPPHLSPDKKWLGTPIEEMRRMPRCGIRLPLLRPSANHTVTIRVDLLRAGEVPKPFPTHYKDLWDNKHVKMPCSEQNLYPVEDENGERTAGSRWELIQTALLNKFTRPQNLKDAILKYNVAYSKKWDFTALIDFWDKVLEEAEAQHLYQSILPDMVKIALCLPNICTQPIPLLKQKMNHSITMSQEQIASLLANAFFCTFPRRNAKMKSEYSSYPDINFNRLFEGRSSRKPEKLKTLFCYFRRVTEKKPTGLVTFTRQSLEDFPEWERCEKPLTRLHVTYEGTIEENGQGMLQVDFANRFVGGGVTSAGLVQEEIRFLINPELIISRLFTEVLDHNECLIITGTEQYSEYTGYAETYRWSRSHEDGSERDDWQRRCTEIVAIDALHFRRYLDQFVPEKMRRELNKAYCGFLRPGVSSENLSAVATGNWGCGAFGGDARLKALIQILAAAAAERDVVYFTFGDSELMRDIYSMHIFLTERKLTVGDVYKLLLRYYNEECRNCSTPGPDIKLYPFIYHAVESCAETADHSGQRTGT
Description: (§1) PARG activity was assessed using an HTRF assay which will be described in detail elsewhere (Bennett et al, manuscript in preparation). […] Following this incubation, biotinylated NAD^+ at a molar ratio to PARylated PARP1 of 0.7∶1 was added and incubation continued for 5 minutes. The reaction was terminated by addition of a PARP1-specific inhibitor to a final concentration of 4.7 µM. The solution was dialysed overnight to remove excess biotinylated NAD^+ and compound, and stored at −80°C. PARG activity was measured in a 384-well format HTRF assay using the biotin-labelled PARylated PARP1 as a substrate. Residual biotinylated PARylated PARP1 was detected by addition of a detection mix containing anti-6His–XL antibody (Cisbio) and streptavidin europium cryptate (Cisbio), and then monitoring the ratio of emission at 665 nm to 612 nm upon excitation at 340 nm.
Inhibition by ADP-HPD was measured using serial dilutions over the range 100 µM to 100 pM compound from a 1 mM stock in water. Assays contained 30 pM purified recombinant PARG and 9.67 nM PAR-PARP1 in a final volume of 9 µL assay buffer (50 mM MOPS pH 7.4, 0.1 mg/mL BSA, 3 mM EDTA, 0.4 mM EGTA, 1 mM DTT, 0.01% v/v Tween20, 50 mM KCl). Reactions were allowed to proceed for 8 minutes prior to the addition of 3 µL detection reagents (50 mM MOPS pH 7.4, 0.1 mg/mL BSA, 0.1 M Potassium Fluoride, 14 nM anti-6HIS-XL antibody, 0.75 nM Streptavidin Europium Cryptate). IC50s were calculated using a time-point of 1.5 hours from the addition of detection reagents.
Here, 17.5 nL of ADP-HPD ([…]) or OA-ADP-HPD (21.43 mM in DMSO) were dispensed by an ECHO555 (Labcyte Inc.) into Greiner white 1536-well plates over the specified range: ADP-HPD (100 µM to 100 pM) and OA-ADP-HPD (500 µM to 30 nM).
ADP-HPD and OA-ADP-HPD inhibition data were visualised in Prism (GraphPad), and IC50s derived from a non-linear regression analysis of the values from three separate experiments (run in triplicate) fit to a sigmoidal dose-response curve.

[9] = target: T2, hPARG26 (hPARG(448–976 [K616A, Q617A, K618A, E688A, K689A & K690A])) (Homo sapiens, UniProt Q86W56, E688A/K616A/K618A/K689A/K690A/Q617A); assay: PARG activity HTRF assay (PAR-PARP1 hydrolysis); type: biochemical; details: 9 µL HTRF
T2 construct: a codon optimized gene encoding human PARG(448–976 [K616A, Q617A, K618A, E688A, K689A, K690A]); 6His (TEV-cleavable) (N, cleaved yes); made in house; host or cells: E. coli BL21 (DE3) GOLD (shake flasks, as for hPARG4)
T2 sequence (Q86W56 448-976 K616A/Q617A/K618A/E688A/K689A/K690A): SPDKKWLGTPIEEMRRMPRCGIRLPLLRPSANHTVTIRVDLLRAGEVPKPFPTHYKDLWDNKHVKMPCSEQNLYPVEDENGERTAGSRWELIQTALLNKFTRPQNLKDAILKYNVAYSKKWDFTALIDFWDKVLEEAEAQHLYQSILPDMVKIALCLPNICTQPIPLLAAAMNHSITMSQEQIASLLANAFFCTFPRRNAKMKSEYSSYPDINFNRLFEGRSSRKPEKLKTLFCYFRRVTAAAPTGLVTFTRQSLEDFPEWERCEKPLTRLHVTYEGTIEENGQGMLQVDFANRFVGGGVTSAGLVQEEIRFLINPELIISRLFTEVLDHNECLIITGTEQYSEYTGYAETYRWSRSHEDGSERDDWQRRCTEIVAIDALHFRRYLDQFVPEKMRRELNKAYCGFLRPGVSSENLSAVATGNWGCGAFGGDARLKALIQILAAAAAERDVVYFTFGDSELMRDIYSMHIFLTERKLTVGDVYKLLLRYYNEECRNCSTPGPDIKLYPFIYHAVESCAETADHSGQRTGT
Description: as §1
(§2) Inhibition by ADP-HPD was measured using serial dilutions over the range 100 µM to 100 pM compound from a 1 mM stock in water. Assays contained 30 pM purified recombinant PARG and 9.67 nM PAR-PARP1 in a final volume of 9 µL assay buffer (50 mM MOPS pH 7.4, 0.1 mg/mL BSA, 3 mM EDTA, 0.4 mM EGTA, 1 mM DTT, 0.01% v/v Tween20, 50 mM KCl). […] IC50s were calculated using a time-point of 1.5 hours from the addition of detection reagents. […]

[10] = target: T3, hPARG4 (hPARG(448–976)) (Homo sapiens, UniProt Q86W56); assay: PARG activity HTRF assay (PAR-PARP1 hydrolysis); type: biochemical; details: 9 µL HTRF
T3 construct: a codon optimized gene encoding human PARG(448–976) was synthesized by GeneArt; 6His (TEV-cleavable) (N, cleaved yes); made in house; host or cells: E. coli BL21 (DE3) GOLD
T3 sequence (Q86W56 448-976): as the sequence (Q86W56 448-976 K616A/Q617A/K618A/E688A/K689A/K690A) above, with A169K, A170Q, A171K, A241E, A242K, A243K counted along it
Description: as §1, §2

[11] = target: T4, hPARG (full-length) (Homo sapiens, UniProt Q86W56); assay: SPR binding to immobilised PARG, steady state fits; details: 25°C, steady state fit
T4 construct: direct expression of hPARG(1–976) with a C-terminal hexahistidine tag; made in house; host or cells: E. coli BL21 (DE3) GOLD
T4 sequence (Q86W56 whole entry): as the sequence (Q86W56 whole entry) above
Description: (§3) Biosensor (SPR) analyses were conducted using a BIAcore 3000 or BIAcore S51 instrument. Research grade CM5 chips and coupling reagents (N-ethyl-N′-dimethylaminopropylcarbodiimide, EDC; N-hydroxysuccinimide, NHS; and 1 M ethanolamine HCl, pH 8.5) were purchased from BIAcore (GE Healthcare, Northampton, MA).
(§4) A CM5 chip was docked into the instrument, primed 5 times with filtered and degassed running buffer containing 50 mM HEPES pH 7, followed by preconditioning at 100 µL/min using two consecutive aliquots of 50 µL each of 10 mM HCl, 50 mM NaOH, 0.1% (w/v) SDS, 0.085% (v/v) H3PO4. PARG surfaces were prepared by standard amine coupling via exposed amines on PARG. Immobilisations were conducted at 25°C in 50 mM HEPES at a flow rate of 5 µL/min. Flow cells were activated for 7 min by injecting a 35 µL mixture of 50 mM NHS: 200 mM EDC. Subsequently, 35 µL of 100 µg/mL PARG was injected for 7 min, followed by a 35 µL injection of ethanolamine. Typical immobilisation levels ranged from 3000 to 5000 resonance units (RU). Nonderivatised flow cells served as reference surfaces.
(§5) Studies of PARG inhibitor binding were conducted at 25°C. […] To calculate affinities, SPR equilibrium binding data, consisting of Req values from 8–10 point concentration series, were analyzed by fitting a simple 1∶1 binding model to yield Rmax and Kd values using non-linear regression analysis in Grafit 6 (Erithacus Software).

[12] = target: T3, hPARG4 (hPARG(448–976)); assay: SPR binding to immobilised PARG, steady state fits; details: 25°C, steady state fit
Description: as §3, §4, §5

[13] = target: T4, hPARG (full-length); assay: Isothermal titration calorimetry; type: binding; details: 25°C
Description: (§6) This was carried out using an iTC200 instrument (Microcal, GE Healthcare, Northampton, MA) at 25°C in the following buffer: 20 mM HEPES pH 7, 150 mM NaCl, 2 mM DTT, 0.02% NaN3. Protein concentrations were typically 30 µM in the cell with ligand concentrations of at least 10 fold this concentration in the syringe. Typical injection protocols of 19×2 µL injections, spaced at 2 or 3 minute intervals were used. Curves were fitted by non-linear regression analysis using a one-site binding model provided by MicroCal Origin software (version 7).

[14] = target: T3, hPARG4 (hPARG(448–976)); assay: Isothermal titration calorimetry; type: binding; details: 25°C
Description: as §6

[15] = test system: bovine PARG (bPARG), purified full-length protein; design: method as in PMID 13678410; details: read-out: IC50, literature value; cited from earlier work
[16] = test system: bovine PARG (bPARG), recombinant catalytic domain; design: method as in PMID 13678410; details: recombinant catalytic domain of bPARG; read-out: IC50, literature value; cited from earlier work
[17] = target: bPARG; design: method as in PMID 7830282; details: read-out: KD, literature values for bPARG; cited from earlier work

In the case of 8-aminohexylaminoADP-HPD [8-AH-ADP-HPD], the Kd [1] is given as 8.2 nM, the Kd ([2]; bPARG Glu728Asn (E727N in hPARG), SPR with immobilized 8-AH-ADP-HPD) is given as 3.2 nM and the “increase in affinity versus wild-type” value ([2]; bPARG Glu728Asn, ref supplemental 2 (Patel et al., 2005)) is given as 18% wild-type specific activity; 2.5-fold increase in affinity for 8-AH-ADP-HPD. For the same compound, the “increase in affinity versus wild-type” value [3] was “No effect on catalytic activity; 2.5-fold increase in affinity for 8-AH-ADP-HPD”, the “decrease in affinity versus wild-type” value [4] was “No detectable activity; 1.4-fold decrease in affinity for 8-AH-ADP-HPD” and the “increase in affinity versus wild-type” value [5] was “No detectable activity; 8-fold increase in 8-AH-ADP-HPD affinity”. The “effect of mutation on affinity” value [6] was “No detectable activity; no effect on 8-AH-ADP-HPD affinity” and the “effect of mutation on binding” value [7] was “Limited effect on catalytic activity and 8-AH-ADP-HPD binding”.

For Nc1ncnc2c1ncn2C1OC(COP(=O)(O)OP(=O)(O)OCC2NCC(O)C2O)C(O)C1O (stereo not shown) [ADP-HPD, adenosine 5′-diphosphate (hydroxymethyl)pyrrolidinediol], the IC50 ([8]; 384-well HTRF, 9 µL, 30 pM PARG, 9.67 nM PAR-PARP1, 8 min reaction, read-out: IC50) was 3000 nM and 3100 nM, the IC50 ([8]; conditions of the High Throughput Screening campaign, read-out: IC50 under HTS campaign conditions) was ~600 nM and the IC50 [9] was 1100 ± 220 nM. It also gave an IC50 [10] of 970 ± 240 nM, a Kd [11] of 44.8 ± 2.9 nM and a Kd [12] of 64.3 ± 2.6 nM. For the same compound, the Kd ([13]; values heavily influenced by base-line noise (Figure S2), read-out: KD (ITC)) was 416 ± 89.9 nM, the ΔG ([13]; ITC) was -8.7 ± 0.12 kcal/mol and the ΔH ([13]; ITC) was -7.36 ± 0.0096 kcal/mol. The ΔS ([13]; ITC) was “+18.8±1.7 J/mol/K”, the Kd ([14]; read-out: KD (ITC)) was 132 ± 14 nM and the ΔG ([14]; ITC) was -9.42 ± 0.072 kcal/mol. The ΔH ([14]; ITC) was -13.4 ± 0.096 kcal/mol, the ΔS ([14]; ITC) was −56.1±0.5 J/mol/K and the IC50 [15] was 330 nM. For the same compound, the IC50 [16] was 1000 to 1400 nM and the Kd [17] was 50 to 80 nM.
